{"source": "patent US10004722B2", "about": "“Method for treating hepatic encephalopathy or a disease associated with free radical mediate stress and oxidative stress with novel functionalized 1,3-benzene diols” (KANNALIFE SCIENCES, INC., priority 2014, dated 2018)", "key": {"hippocampal cultures [1]": {"test_system": "hippocampal cultures", "assay": "cells", "format": "cell-based", "settings": "Rattus norvegicus, 300 μM ammonium acetate, propidium iodide, read-out: NP from AmAc PI EC50", "text": "(§1) Cell cultures: All compounds were screened with dissociated hippocampal cultures derived from embryonic day 18 rats as the primary test system. With this preparation, primary neurons were used to test for toxicity as well as neuroprotection in a highly relevant experimental system to hepatic encephalopathy (HE). In brief, hippocampal tissue was obtained commercially through Brain Bits (Springfield, Ill.) and cultures prepared as previously described (Brewer, 1995). The hippocampal neurons were platted at low density (10,000 cell/well) in a 96-well format and maintained in serum-free medium consisting of Neurobasal Medium supplemented with B27 and GlutaMAX (Gibco). Pre-coated poly-D-lysine coated plates will be used because of the adherence and survival of hippocampal neurons and glia on this matrix support.\n(§2) The central objective of all neuroprotective assays was their relevancy to oxidative stress related to HE and other or diseases associated with oxidative stress in general. These studies use phenotypic assays of neuroprotection because the molecular target(s) mediating the action of cannabidiol-like protecting substances is unknown. Both the amount of ethanol and ammonia used in the assays, as well as the time of treatment and duration of the experiment, were designed to be relevant to HE (Ong et al, 2003). […]"}, "hippocampal cultures [2]": {"test_system": "hippocampal cultures", "assay": "Neuroprotection from 300 μM ammonium acetate, CFDA assay", "format": "cell-based", "settings": "Rattus norvegicus, read-out: NP from AmAc CFDA EC50", "text": "as §1, §2"}, "hippocampal cultures [3]": {"test_system": "hippocampal cultures", "assay": "Neuroprotection from 30 mM ethanol, CFDA assay", "format": "cell-based", "settings": "Rattus norvegicus, read-out: NP from Ethanol CFDA EC50", "protocol": "Cell cultures: All compounds were screened with dissociated hippocampal cultures derived from embryonic day 18 rats as the primary test system. […] The hippocampal neurons were platted at low density (10,000 cell/well) in a 96-well format and maintained in serum-free medium consisting of Neurobasal Medium supplemented with B27 and GlutaMAX (Gibco).\nThe effective working concentration of ethanol that was empirically determined to produce toxicity in the hippocampal cultures was 30 mM.\nCarboxyfluorescein (CFDA) was used a vital stain for all neuroprotection studies. With the use of the CytoFluor fluorimeter, the CFDA assay was employed to assess the viability of neurons. […] Cultures were treated within the period of culture vulnerability for toxins relevant to HE: between days 11 and 22 after cell plating. The test agents were evaluated with the two assays during a 5 hour test period. For all assays, a 96-well format was used. […] Cultures were given a complete change of medium prior to the initiation of the treatment period.\nA compound of the disclosure was added to the hippocampal cultures for a five hour period. Compounds were tested from 10 nM to 100 μM. At the conclusion of the test period, the cultures were tested for the amount of neuronal viability by the CFDA method. […]"}, "hippocampal cultures [4]": {"test_system": "hippocampal cultures", "assay": "cells", "format": "cell-based", "settings": "Rattus norvegicus, 30 mM ethanol, propidium iodide, read-out: NP from Ethanol PI EC50", "quoted_text": "Cell cultures: All compounds were screened with dissociated hippocampal cultures derived from embryonic day 18 rats as the primary test system. With this preparation, primary neurons were used to test for toxicity as well as neuroprotection in a highly relevant experimental system to hepatic encephalopathy (HE). In brief, hippocampal tissue was obtained commercially through Brain Bits (Springfield, Ill.) and cultures prepared as previously described (Brewer, 1995). The hippocampal neurons were platted at low density (10,000 cell/well) in a 96-well format and maintained in serum-free medium consisting of Neurobasal Medium supplemented with B27 and GlutaMAX (Gibco). […]\nThese studies use phenotypic assays of neuroprotection because the molecular target(s) mediating the action of cannabidiol-like protecting substances is unknown. […] Further, all time parameters employed in these studies were empirically determined to be within the limits of reversible toxic events after treatment with cannabidiol (Hamelink et al., 2005) and cannabidiol-like substances, yet using amounts of ethanol (30 mM) and ammonia (300 μM ammonium acetate) that were relevant to the disease. […]\nCarboxyfluorescein (CFDA) was used a vital stain for all neuroprotection studies. […] The test agents were evaluated with the two assays during a 5 hour test period. […]"}, "hippocampal cultures [5]": {"test_system": "hippocampal cultures", "assay": "Neuroprotection from 30 mM ethanol plus 300 μM ammonium acetate, CFDA assay", "format": "cell-based", "settings": "Rattus norvegicus, read-out: NP from ethanol + AmAc CFDA EC50", "text": "as §1, §2"}, "hippocampal cultures [6]": {"test_system": "hippocampal cultures", "assay": "Neuroprotection from 30 mM ethanol plus 300 μM ammonium acetate, propidium iodide (PI) assay", "format": "cell-based", "settings": "Rattus norvegicus, read-out: NP from ethanol + AmAc PI EC50", "text": "as §1, §2"}, "[7]": {"assay": "Pharmacokinetic profile after an IV dose in CD1 mice", "format": "in vivo", "description": "(§3) The pharmacokinetic profile of compounds of the disclosure are determined in CD1 mice by administering IV and PO doses of the compounds of the disclosure to the CD1 mice. Plasma samples are drawn at 0.083, 0.25, 0.5, 1.0, 2.0, 4.0, 8.0, and 24 hours to determine the plasma concentration of the compounds of the disclosure. Brain and CSF samples were collected at 0.25 hours, 2 hours, and 8 hours post dosing. IV doses were prepared as solutions in 5% Dimethylacetamide (DMAC), 5% Solutol HS 15 and 90% Saline at 0.4 mg/mL PO doses were prepared as solutions in 5% Dimethylacetamide (DMAC), 5% Solutol HS 15 and 90% Saline at 1 mg/mL. Experimental results for exemplary compounds of the disclosure are described in tables 6-9 and FIGS. 1 and 2."}, "in vivo": {"assay": "in vivo", "set-up": "species or system CD1 mice", "description": "as §3"}, "[8]": {"settings": "CD1, mouse, in vivo, iv, 2 mg/kg"}, "[9]": {"settings": "CD1, mouse, in vivo, po, 10 mg/kg"}, "[10]": {"settings": "PO 10 mg/kg, CD1 mice, 0.25 hr, listed as KLS-13019, 10 mg/kg"}, "[11]": {"settings": "PO 10 mg/kg, CD1 mice, 2 hr, listed as KLS-13019, 10 mg/kg"}}, "note": "Values joined by “and” are separate entries in the source; they are usually repeats but may differ in a detail not shown here. Equal entries are not always repeated. Where two headings read alike, the source gives them in different places."}
{"smiles": "C=C(C)[C@@H]1CCC(C)=C[C@H]1c1c(O)cc(CC2CN(C(=O)OCC)C2)cc1O", "note": "[Example 3, ethyl 3-(3,5-dihydroxy-4-((1R,6R)-3-methyl-6-(prop-1-en-2-yl)cyclohex-2-enyl)benzyl)azetidine-1-carboxylate]", "values": [{"measurement": "EC50", "setting": "hippocampal cultures [1]", "value": 50, "unit": "nM"}, {"measurement": "EC50", "setting": "hippocampal cultures [2]", "value": 105, "unit": "nM"}, {"measurement": "EC50", "setting": "hippocampal cultures [3]", "value": 30, "unit": "nM"}, {"measurement": "EC50", "setting": "hippocampal cultures [4]", "value": 20, "unit": "nM"}, {"measurement": "EC50", "setting": "hippocampal cultures [5]", "value": 87, "unit": "nM"}, {"measurement": "EC50", "setting": "hippocampal cultures [6]", "value": 61, "unit": "nM"}]}
{"smiles": "C=C(C)[C@@H]1CCC(C)=C[C@H]1c1c(O)cc(CC2CN(C(C)=O)C2)cc1O", "note": "[Example 2, 1-(3-(3,5-dihydroxy-4-((1R,6R)-3-methyl-6-(prop-1-en-2-yl)cyclohex-2-enyl)benzyl)azetidin-1-yl)ethanone]", "values": [{"measurement": "EC50", "setting": "hippocampal cultures [1]", "value": 38, "unit": "nM"}, {"measurement": "EC50", "setting": "hippocampal cultures [2]", "value": 61, "unit": "nM"}, {"measurement": "EC50", "setting": "hippocampal cultures [3]", "value": 175, "unit": "nM"}, {"measurement": "EC50", "setting": "hippocampal cultures [4]", "value": 46, "unit": "nM"}, {"measurement": "EC50", "setting": "hippocampal cultures [5]", "value": 127, "unit": "nM"}, {"measurement": "AUC(0-inf)", "setting": "[7]; [8]", "value": 440, "unit": "ng·h/mL"}, {"measurement": "AUC(0-t)", "setting": "[7]; [8]", "value": 431, "unit": "ng·h/mL"}, {"measurement": "MRT inf", "setting": "[7]; [8]", "value": 0.702, "unit": "h"}, {"measurement": "Vd", "setting": "[7]; [8]", "value": 3.19, "unit": "L/kg"}, {"measurement": "clearance", "setting": "[7]; [8]", "value": 75.8, "unit": "mL/min/kg"}, {"measurement": "half-life", "setting": "[7]; mouse, plasma, IV 2 mg/kg, CD1 mice, read-out: Terminal t1/2 (converted)", "value": 3.24, "unit": "h"}, {"measurement": "EC50", "setting": "hippocampal cultures [6]", "value": 203, "unit": "nM"}, {"measurement": "Tmax", "setting": "in vivo; [9]", "value": 0.25, "unit": "h"}, {"measurement": "half-life", "setting": "in vivo; [9]", "value": 5.31, "unit": "h"}, {"measurement": "concentration at 0.25 h", "setting": "in vivo; CD1, mouse, in vivo, po, 10 mg/kg, PO 10 mg/kg, CD1 mice, 0.25 hr, read-out: Brain concentration, mean", "value": 469, "unit": "ng/mL"}, {"measurement": "Kp at 0.25 h", "setting": "in vivo; CD1, mouse, in vivo, po, 10 mg/kg, PO 10 mg/kg, CD1 mice, 0.25 hr, read-out: Brain/Plasma (%), individual", "value": 0.801}, {"measurement": "Kp at 0.25 h", "setting": "in vivo; CD1, mouse, in vivo, po, 10 mg/kg, PO 10 mg/kg, CD1 mice, 0.25 hr, read-out: Brain/Plasma (%), mean", "value": 0.821}, {"measurement": "concentration at 0.25 h", "setting": "in vivo; CD1, mouse, in vivo, po, 10 mg/kg, PO 10 mg/kg, CD1 mice, 0.25 hr, read-out: CSF concentration, mean", "value": 8.95, "unit": "ng/mL"}, {"measurement": "Kp at 0.25 h", "setting": "in vivo; CD1, mouse, in vivo, po, 10 mg/kg, PO 10 mg/kg, CD1 mice, 0.25 hr, read-out: CSF/Plasma (%), individual", "value": 0.0179}, {"measurement": "Kp at 0.25 h", "setting": "in vivo; CD1, mouse, in vivo, po, 10 mg/kg, PO 10 mg/kg, CD1 mice, 0.25 hr, read-out: CSF/Plasma (%), mean", "value": 0.0155}, {"measurement": "concentration at 2 h", "setting": "in vivo; CD1, mouse, in vivo, po, 10 mg/kg, PO 10 mg/kg, CD1 mice, 2 hr, read-out: Brain concentration, mean", "value": 126, "unit": "ng/mL"}, {"measurement": "Kp at 2 h", "setting": "in vivo; CD1, mouse, in vivo, po, 10 mg/kg, PO 10 mg/kg, CD1 mice, 2 hr, read-out: Brain/Plasma (%), individual", "value": 1.15}, {"measurement": "Kp at 2 h", "setting": "in vivo; CD1, mouse, in vivo, po, 10 mg/kg, PO 10 mg/kg, CD1 mice, 2 hr, read-out: Brain/Plasma (%), mean", "value": 1.17}, {"measurement": "concentration at 2 h", "setting": "in vivo; CD1, mouse, in vivo, po, 10 mg/kg, PO 10 mg/kg, CD1 mice, 2 hr, read-out: CSF concentration, mean", "value": 2.65, "unit": "ng/mL"}, {"measurement": "Kp at 2 h", "setting": "in vivo; CD1, mouse, in vivo, po, 10 mg/kg, PO 10 mg/kg, CD1 mice, 2 hr, read-out: CSF/Plasma (%), individual", "value": 0.0255}, {"measurement": "Kp at 2 h", "setting": "in vivo; CD1, mouse, in vivo, po, 10 mg/kg, PO 10 mg/kg, CD1 mice, 2 hr, read-out: CSF/Plasma (%), mean", "value": 0.0291}, {"measurement": "F", "setting": "in vivo; CD1, mouse, po, 10 mg/kg", "value": 67.1, "unit": "%"}, {"measurement": "Tmax", "setting": "in vivo; CD1, mouse, po, 10 mg/kg", "value": 0.25, "unit": "h"}, {"measurement": "half-life", "setting": "in vivo; CD1, mouse, po, 10 mg/kg", "value": 5.36, "unit": "h"}, {"measurement": "Brain/CSF, mean", "setting": "in vivo; PO 10 mg/kg, CD1 mice, 0.25 hr", "value": 53.5}, {"measurement": "Brain/CSF, individual", "setting": "in vivo; [10]", "value": "44.7 and 61.3 and 54.6"}, {"measurement": "Brain/Plasma (%), individual", "setting": "in vivo; [10]", "value": "87.4% and 78.7%"}, {"measurement": "CSF/Plasma (%), individual", "setting": "in vivo; [10]", "value": "1.42% and 1.44%"}, {"measurement": "Brain/CSF, mean", "setting": "in vivo; PO 10 mg/kg, CD1 mice, 2 hr", "value": 43.7}, {"measurement": "Brain/CSF, individual", "setting": "in vivo; [11]", "value": "45.0 and 60.3 and 25.9"}, {"measurement": "Brain/Plasma (%), individual", "setting": "in vivo; [11]", "value": "136% and 101%"}, {"measurement": "CSF concentration, individual", "setting": "in vivo; [11]", "value": "3.60 ng/mL and 3.00 ng/mL and 1.35 ng/mL"}, {"measurement": "CSF/Plasma (%), individual", "setting": "in vivo; [11]", "value": "2.26% and 3.91%"}, {"measurement": "Brain concentration, individual", "setting": "in vivo; PO 10 mg/kg, CD1 mice, 8 hr", "value": "BQL"}, {"measurement": "Brain concentration, mean", "setting": "in vivo; PO 10 mg/kg, CD1 mice, 8 hr", "value": "BQL"}, {"measurement": "Brain/Plasma (%), mean", "setting": "in vivo; PO 10 mg/kg, CD1 mice, 8 hr", "value": "BQL"}, {"measurement": "CSF concentration, individual", "setting": "in vivo; PO 10 mg/kg, CD1 mice, 8 hr", "value": "BQL"}, {"measurement": "CSF concentration, mean", "setting": "in vivo; PO 10 mg/kg, CD1 mice, 8 hr", "value": "BQL"}, {"measurement": "CSF/Plasma (%), mean", "setting": "in vivo; PO 10 mg/kg, CD1 mice, 8 hr", "value": "BQL"}]}
